Details: 80° C. for nine days

Compound | Changes in IR, 1H-NMR and DSC after heat exposure
NCCNCCNCCN.O=C(O)CCC(=O)O.O=C(O)CCC(=O)O [Succinic, triethylenetetramine disuccinate] | no changes
NCCNCCNCCN.O=C(O)/C=C/C(=O)O.O=C(O)/C=C/C(=O)O.O=C(O)/C=C/C(=O)O.O=C(O)/C=C/C(=O)O [Fumaric, triethylenetetramine tetrafumarate] | no changes
NCCNCCNCCN.O=C(O)/C=C\C(=O)O.O=C(O)/C=C\C(=O)O.O=C(O)/C=C\C(=O)O.O=C(O)/C=C\C(=O)O [Maleic, triethylenetetramine tetramaleate] | no changes
